# Data reported in ChEMBL document CHEMBL4052819 (2017).
# Legend:
# Klebsiella pneumoniae [1] = assay: Potentiation of rifampicin-mediated antibacterial activity against Klebsiella pneumoniae ATCC 13883 assessed as decrease in rifampicin MIC at 1.56 to 12.5 ug/ml by broth dilution method relative to control; type: functional
# Klebsiella pneumoniae [2] = assay: Potentiation of rifampicin-mediated antibacterial activity against Klebsiella pneumoniae ATCC 700603 assessed as decrease in rifampicin MIC at 1.56 to 12.5 ug/ml by broth dilution method relative to control; type: functional
structure (smiles),measurement,setting,value
CC[C@H](C)[C@@H](NC(=O)[C@@H](NC(=O)[C@H](CCC(=O)O)NC(=O)[C@H](Cc1ccccc1)NC(=O)[C@@H](CCN)NC(=O)[C@H](CCN)NC(=O)[C@H](CO)NC(=O)[C@@H](Cc1c[nH]c2ccccc12)NC(=O)[C@@H](CO)NC(=O)CNC(=O)[C@@H](CCN)NC(=O)[C@H](N)C(C)C)C(C)C)C(=O)N[C@@H](C)C(=O)O,fold change (FC),Klebsiella pneumoniae [1],256 - 512
same,fold change (FC),Klebsiella pneumoniae [2],256 - 512
